{"source": "patent US20160166637A1", "about": "“METHODS OF TREATING A CANCER THROUGH TARGETED DISRUPTION OF ALPHA CONNEXIN 43-ZONULA OCCLUDENS-1 (ZO-1) INTERACTION” (Virginia Tech Intellectual Properties, Inc., priority 2013, published 2016)", "key": {"[1]": {"details": "taken orally; cited from earlier work"}, "GBM cells": {"test_system": "GBM cells", "details": "cited from earlier work"}, "[2]": {"details": "phase I, brain cancer patients; cited from earlier work"}, "Cx43 CT domain": {"molecular_target": "Cx43 CT domain (Homo sapiens, UniProt P17302)", "sequence (P17302 229-382 limits assumed)": "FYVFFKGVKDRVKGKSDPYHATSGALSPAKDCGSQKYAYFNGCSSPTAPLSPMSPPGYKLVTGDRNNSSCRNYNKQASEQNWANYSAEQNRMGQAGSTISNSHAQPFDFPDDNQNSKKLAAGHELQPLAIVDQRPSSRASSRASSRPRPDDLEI", "assay": "Dot blot binding of biotinylated AAP10 peptides to Cx43 CT", "details": "biotinylated peptide, 500-1 ng", "text": "FIG. 5 is an image showing the results of a dot blot assay for testing binding of AAP10 and AAP10-pTyr with Connexin43-carboxy terminus (CT).\nBy contrast, the tyrosine phosphorylated isoform biotinylated AAP10-pTyr show no affinity for Cx43 CT."}, "[3]": {"details": "in vivo; cited from earlier work"}, "U87 glioma cells": {"test_system": "U87 glioma cells", "assay": "Boyden chamber motility assay (Example 3)", "type": "cell-based, human", "details": "overnight pre-treatment in 10% serum, 4 hour incubation; vs no treatment and control peptide", "experimental": "After an overnight peptide pre-treatment in 10% serum, two glioma cell lines, c6 and U87, were seeded in serum-free media containing peptides into Boyden chamber transwell inserts with 8 μm pores in the membrane and then filled the bottom wells with media containing 10% FBS as a chemoattractant. […] Then the migrated cells were fixed, stained with Hoescht dye, and imaged on an epifluorescence microscope."}, "GS9-6 glioma stem cells": {"test_system": "GS9-6 glioma stem cells", "assay": "Sphere/colony formation assay (self-renewal)", "type": "cell-based, human", "details": "FIG. 15", "text": "To further investigate the effect of ACT-1 on glioma stem cells, the present inventors measured the capacity of glioma stem cells to self-renew. The unique feature that makes glioma stem cells different from other glioma cells is that glioma stem cells are able to copy themselves (termed as self-renewal). The well-established approach to measure self-renewal of stem cells is sphere/colony formation assay. The self-renewal of GS9-6 glioma stem cells treated with ACT-1 was then monitored. […] Two different doses of ACT-1 and TMZ were tested. Both treatments inhibited the self-renewal of GS9-6 (FIGS. 16 and 17). Thus, the data strongly indicate that ACT-1 sensitizes glioblastoma cells to TMZ."}, "[4]": {"test_system": "C6 cells stably expressing Cx43", "assay": "Boyden chamber motility assay (Example 4, serum-free pre-treatment)", "type": "cell-based", "details": "both concentrations of ACT-1 (1 μM, 25 μM); 24 hours serum-free pre-treatment, 4 hours", "experimental": "FIGS. 10A-10C are images of a motility experiment using C6 cells stably expressing Cx43 showing no treatment (FIG. 10A), 25 μM reverse sequence peptide (control peptide) (FIG. 10B) and 25 μM ACT-1 (FIG. 10C).\nFIG. 10D is a graph showing the results of the motility experiment using C6 cells stably expressing Cx43 showing no treatment, 1 μM ACT-1, 25 μM ACT-1, 1 μM reverse sequence peptide (control peptide), and 25 μM reverse sequence peptide (control peptide).\n(§1) In this example, peptides were added after cells were incubated in serum-free media, then 24 hours of pre-treatment was allowed in the serum-free conditions, and finally the cells were transferred, without typsinizing, to Boyden chamber and incubated for 4 hours. […] With this example, the results of the C6 cells seemed to be similar to wt-C6 cells."}, "U87MG glioma cells": {"test_system": "U87MG glioma cells", "assay": "Cell aggregation assay, aggregation index (AI)", "type": "cell-based, human", "details": "25 μM, 48 hours, serum-free", "experimental": "UM87MG glioma cells, which express Cx43, were cultured in serum-free conditions permissive to aggregation. The cells were treated with the ACT-1 peptide for 48 hours and then imaged with phase-contrast microscopy. […] To quantitate the extent of aggregation, ImageJ software was used to collect size information about the aggregates in these images and from that information an aggregation index was calculated for each image. The AI is defined as the total area of aggregation in a field divided by the number of single, unaggregated cells in that field. So an increase in the ratio of aggregation area to unaggregated cells would increase the AI and indicate a higher propensity to aggregate."}, "LN229/GSCs": {"test_system": "LN229/GSCs", "assay": "Glioma xenograft mouse model, tumor growth", "type": "in vivo, mice", "details": "200 μM/tumor ACT-1, 100 mg/kg TMZ", "text": "To further validate the therapeutic effect of ACT-1 in vivo, tumor growth was monitored using a glioma xenograft mouse model. As GS9-6 cells grow slowly in mice, the present inventors elected to use LN229/GSCs, isolated from LN229 human GBM cell line. […] LN229/GSCs were first injected into the flanks of immunocompromised mice and tumors (more than 100 mm3) were detected in all mice in 14 days. By contrast, GS9-6 cells form a tumor in 6 months (data not shown). Treatments at day 14 were then started. First, 100 mg/kg ACT-1 was injected subcutaneously. 24 hours later, mice were treated with 7.5 mg/kg TMZ (dissolved in DMSO) or vehicle DMSO intraperitoneally. Such treatment regime was repeated three times a week for three weeks, and tumor growth was monitored for another week. […] Taken together, these examples provide a firm support for potential clinical application of ACT-1 in treating human or canine glioblastoma patients.\nFIG. 21 is a plot of tumor volume over 53 days for untreated, 200 μM/tumor ACT-1, 100 mg/kg TMZ treated, and combinatorial 200 μM/tumor ACT-1 and 100 mg/kg TMZ treated mice. FIG. 22 is a graph of tumor volumes at 53 days and FIG. 23 is an image of tumor volumes at 53 days for these treatments."}, "Cx43 CT": {"molecular_target": "T1, Cx43 CT (Homo sapiens, UniProt P17302)", "T1 construct": "EDAC cross-linking reaction of ACT-1 and connectin 43 carboxy terminal peptide", "T1 sequence (P17302 229-382 limits assumed)": "as above", "assay": "EDAC cross-linking of ACT-1 and Cx43 carboxy terminal peptide (polyacrylamide gel)", "type": "binding", "text": "FIG. 6 is an image of a polyacrylamide gel showing EDAC cross-linking of ACT-1 and Cx43-CT.\nFIG. 6 is an image of a polyacrylamide gel showing EDAC cross-linking reaction of ACT-1 and connectin 43 carboxy terminal peptide. […] ACT-1 is shown by the zero order cross-linker EDAC."}, "GS9-6 cells": {"test_system": "GS9-6 cells", "assay": "Viability of glioma stem cell line", "type": "cell-based, human", "details": "alone or in combination", "experimental": "FIG. 13 is a graph showing the effects of ACT-1 treatment at concentrations from 30 to 120 μM on the viability of the glial stem cell (GSC) line GS9-6 with or without temozolomide.\nThe ACT-1 peptide was tested on a glioma stem cell (GSC) line alone or in combination with temozolomide (TMZ)."}, "[5]": {"test_system": "Cx-deficient C6 glioma cell line", "assay": "Cell aggregation assay on Cx-deficient cells", "type": "cell-based", "details": "1 μM and 25 μM compared"}, "wild-type C6 cells": {"test_system": "wild-type C6 cells", "assay": "Boyden chamber motility assay (Example 4) on wild-type cells", "type": "cell-based", "details": "both concentrations of ACT-1 (1 μM, 25 μM)", "experimental": "as §1\nThe same situation was true when the same experiment was performed on wild-type C6 cells."}}, "data": [{"compound": "C[C@H]1c2cccc(O)c2C(=O)C2=C(O)[C@]3(O)C(=O)C(C(N)=O)=C(O)[C@@H](N(C)C)[C@@H]3[C@@H](O)[C@@H]21", "note": "[Doxycycline]", "values": [{"measurement": "CSF to serum ratio", "setting": "[1]", "result": "~0.26"}]}, {"compound": "CC#C[C@]1(O)CC[C@H]2[C@@H]3CCC4=CC(=O)CCC4=C3[C@@H](c3ccc(N(C)C)cc3)C[C@@]21C", "note": "[mifepristone]", "values": [{"measurement": "sensitization of GBM cells to TMZ", "setting": "GBM cells", "result": "sensitizes GBM cells to TMZ"}]}, {"compound": "cintredekin besudotox", "values": [{"measurement": "adverse effects", "setting": "[2]", "result": "no significant adverse effects were observed"}]}, {"compound": "antiarrhythmic peptide 10 [AAP10]", "values": [{"measurement": "affinity for the Cx43 CT domain in a dot blot", "setting": "Cx43 CT domain", "result": "concentration dependent affinity"}]}, {"compound": "ACT-1: SEQ ID NO:9: Antennapedia sequence RQPKIWFPNRRKPWKK linked to Cx43 c-terminal 9 amino acids RPRPDDLEI (RQPKIWFPNRRKPWKKRPRPDDLEI)", "values": [{"measurement": "half-life in the body", "setting": "[3]", "result": "less than a few hours"}, {"measurement": "cell migration across the Boyden chamber membrane", "setting": "U87 glioma cells", "result": "significant decrease in cell migration"}, {"measurement": "self-renewal of GS9-6 cells", "setting": "GS9-6 glioma stem cells", "result": "not affected"}, {"measurement": "decrease in migration", "setting": "[4]", "result": 5, "unit": "×"}, {"measurement": "formation of amorphous clumps (phase-contrast images)", "setting": "U87MG glioma cells", "result": "tended to form amorphous clumps"}, {"measurement": "aggregation index (AI)", "setting": "U87MG glioma cells; Bonferroni t-test", "result": "significantly higher AIs relative to controls"}, {"measurement": "tumor volume at 53 days", "setting": "LN229/GSCs", "result": "may promote tumor growth"}, {"measurement": "effect of binding on Cx43 CT homodimers", "setting": "Cx43 CT; EDAC cross-linking", "result": "reduces Cx43 CT homodimers"}, {"measurement": "interaction with the Cx43 CT (EDAC cross-linking)", "setting": "Cx43 CT; zero order cross-linker EDAC", "result": "interacts with the Cx43 CT"}, {"measurement": "viability of GS9-6 cells", "setting": "GS9-6 cells", "result": "only mildly reduced the viability"}, {"measurement": "aggregation versus controls", "setting": "[5]", "result": "no significant difference in aggregation"}, {"measurement": "decrease in motility across the Boyden chamber", "setting": "wild-type C6 cells", "result": "~5", "unit": "×"}]}]}
